Measurements reported in patent US9617244B2, “Antibacterial quinoline derivatives” (JANSSEN PHARMACEUTICA NV, priority 2012, dated 2017).
Values after ≈ are worked out from the molar mass of the structure shown.

Assays:
[1] = system: Mycobacterium smegmatis (ATCC607); assay: In-vitro anti-bacterial activity against strain M. Smegmatis ATCC607; format: cell-based; conditions: 90% inhibitory concentration for bacterial growth, Alamar Blue fluorescence; for IC90 MSM 607: 48 hours; for IC90: Mycolicibacterium smegmatis, ATCC607, 48 h, read-out: IC90 MSM 607
Protocol: D.1. In-Vitro Method for Testing Compounds for Anti-Bacterial Activity Against Strain M. Smegmatis ATCC607
Flat-bottom, sterile 96-well plastic microtiter plates were filled with 180 μl of sterile deionized water, supplemented with 0.25% BSA. Subsequently, stock solutions (7.8× final test concentration) of compounds were added in 45 μl volumes to a series of duplicate wells in column 2 so as to allow evaluation of their effects on bacterial growth. Serial five-fold dilutions (45 μl in 180 μl) were made directly in the microtiter plates from column 2 to 11 using a customised robot system (Zymark Corp., Hopkinton, Mass.). Pipette tips were changed after every 3 dilutions to minimize pipetting errors with high hydrophobic compounds. Untreated control samples with (column 1) and without (column 12) inoculum were included in each microtiter plate. Approximately 250 CFU per well of bacteria inoculum, in a volume of 100 μl in 2.8× Mueller-Hinton broth medium, was added to the rows A to H, except column 12. The same volume of broth medium without inoculum was added to column 12 in row A to H. The cultures were incubated at 37° C. for 48 hours in a humidified 5% CO2 atmosphere (incubator with open air valve and continuous ventilation). At the end of incubation, two days after inoculation, the bacterial growth was quantitated fluorometrically. Therefore Alamar Blue (10×) was added to all wells in a volume of 20 μl and plates were incubated for another 2 hours at […]
The fluorescence was read in a computer-controlled fluorometer (Cytofluor, Biosearch) at an excitation wavelength of 530 nm and an emission wavelength of 590 nm (gain 30). The percentage growth inhibition achieved by the compounds was calculated according to standard methods and expressed as IC90 (μg/ml) which defines the 90% inhibitory concentration for bacterial growth.

[2] = system: Staphylococcus aureus (ATCC29213); assay: In-vitro anti-bacterial activity, microtitre plate assay, IC90 determination (non-mycobacterial strains); format: cell-based; conditions: 90% inhibitory concentration for bacterial growth, resazurin fluorescence; for IC90 STA B29213: 24 hours; for IC90: Staphylococcus aureus, ATCC29213, 24 h, read-out: IC90 STA B29213
Protocol: D.2. In-Vitro Method for Testing Compounds for Anti-Bacterial Activity Against Various Non-Mycobacterial Strains
Preparation of Bacterial Suspensions for Susceptibility Testing:
The bacteria used in this study were grown overnight in flasks containing 100 ml Mueller-Hinton Broth (Becton Dickinson—cat. no. 275730) in sterile de-ionized water, with shaking, at 37° C. Stocks (0.5 ml/tube) were stored at −70° C. until use. Bacteria titrations were performed in microtiter plates to detect the TCID50, in which TCID50 represents the dilution that gives rise to bacterial growth in 50% of inoculated cultures. In general, an inoculum level of approximately 100 TCID50 was used for susceptibility testing.
Anti Bacterial Susceptibility Testing: IC90 Determination
Flat-bottom, sterile 96-well plastic microtiter plates were filled with 180 μl of sterile deionized water, supplemented with 0.25% BSA. Subsequently, stock solutions (7.8× final test concentration) of compounds were added in 45 μl volumes in column 2 Serial five-fold dilutions (45 μl in 180 μl) were made directly in the microtiter plates from column 2 to reach column 11. Untreated control samples with (column 1) and without (column 12) inoculum were included in each microtiter plate. Depending on the bacteria type, approximately 10 to 60 CFU per well of bacteria inoculum (100 TCID50), in a volume of 100 μl in 2.8× Mueller-Hinton broth medium, was added to the rows A to H, except column 12. The same volume of broth medium without inoculum was added to column 12 in row A to H. The cultures were incubated at 37° C. for 24 hours under a normal atmosphere (incubator with open air valve and continuous ventilation). At the end of incubation, one day after inoculation, the bacterial growth was quantitated fluorometrically. Therefore resazurin (0.6 mg/ml) was added in a volume of 20 μl to all wells 3 hours after inoculation, and the plates were re-incubated overnight. A change in colour from blue to pink indicated the growth of bacteria. The fluorescence was read in a computer-controlled fluorometer (Cytofluor Biosearch) at an excitation wavelength of 530 nm and an emission wavelength of 590 nm. The % growth inhibition achieved by the compounds was calculated according to standard methods. The IC90 (expressed in μg/ml) was defined as the 90% inhibitory concentration for bacterial growth.

Row | IC90 MSM 607 [1] [µg/mL] | IC90 STA B29213 [2] [µg/mL] | IC90 [1] [µg/mL] | IC90 [2] [µg/mL] | SMILES
1 | >15.08 | >15.08 | – | – | CS(=O)(=O)c1ccc2[nH]c(=O)c(C(c3ccc(Cl)cc3)C3(O)CCN[C@@H](Cc4ccc(F)c(F)c4)C3)cc2c1 (stereo in doubt) [Compound 206]
2 | 7.04 (≈ 13.5 µM) | 7.04 (≈ 13.5 µM) | – | – | CSc1ccc(C(c2cc3cc(Cl)ccc3[nH]c2=O)C2(O)CCNC(c3ccc(F)cc3C)C2)cc1 (stereo not shown) [Compound 349]
3 | 1.73 (≈ 3.22 µM) | 2.18 (≈ 4.06 µM) | – | – | COc1nc2ccc(Cl)cc2cc1C(c1ccc(SC)cc1)C1(O)CCNC(c2ccc(F)cc2C)C1 (stereo not shown) [Compound 353]
4 | 1.26 (≈ 2.51 µM) | 3.17 (≈ 6.31 µM) | – | – | COc1nc2ccc(SC)cc2cc1C(c1ccccc1)C1(O)CCNC(c2ccc(F)cc2C)C1 (stereo not shown) [Compound 167]
5 | 2.40 (≈ 4.08 µM) | 2.40 (≈ 4.08 µM) | – | – | COc1nc2ccc(Br)cc2cc1C(c1ccc(Cl)cc1)C1(O)CCNC(Cc2ccc(F)cc2F)C1 (stereo not shown) [Compound 319]
6 | – | >19.87 | > 19.9 | – | COc1nc2ccc(Br)cc2cc1C(c1ccc(Cl)cc1)C1(O)CCN(Cc2ccccc2)CC1C (stereo not shown) [Compound 25]
7 | 7.02 (≈ 13.4 µM) | 7.02 (≈ 13.4 µM) | – | – | CSc1ccc2[nH]c(=O)c(C(c3ccc(Cl)cc3)C3(O)CCNC(Cc4ccc(F)cc4)C3)cc2c1 (stereo not shown) [Compound 282]
8 | >19.28 | >19.28 | – | – | COc1nc2ccc(S(C)(=O)=O)cc2cc1C(c1ccc(Cl)cc1)C1(O)CCNC(c2ccc(F)cc2C)C1 (stereo not shown) [Compound 201]
9 | 2.78 (≈ 5.31 µM) | 1.76 (≈ 3.36 µM) | – | – | CSc1ccc2[nH]c(=O)c(C(c3cccc(Cl)c3)C3(O)CCNC(c4ccc(F)cc4C)C3)cc2c1 (stereo not shown) [Compound 177]
10 | 3.90 (≈ 7.94 µM) | 6.19 (≈ 12.6 µM) | – | – | COc1nc2ccc(F)cc2cc1C(c1ccc(Cl)cc1)C1(O)CCNC(Cc2ccccc2)C1 (stereo not shown) [Compound 55]
11 | <0.93 | 1.87 (≈ 3.36 µM) | – | – | Cc1cc(F)ccc1C1CC(O)(C(c2ccc(Cl)cc2)c2cc3cc(Br)ccc3[nH]c2=O)CCN1 (stereo not shown) [Compound 106]
12 | 1.37 (≈ 2.5 µM) | 1.73 (≈ 3.16 µM) | – | – | COc1nc2ccc(SC(C)C)cc2cc1C(c1ccc(Cl)cc1)C1(O)CCNC(Cc2ccccc2)C1 (stereo not shown) [Compound 385]
13 | 3.36 (≈ 6.4 µM) | 4.23 (≈ 8.05 µM) | – | – | COc1nc2ccc(SC)cc2cc1C(c1ccc(Cl)cc1)C1(O)CCNC(CC2CCCCC2)C1 (stereo not shown) [Compound 289]
14 | 1.65 (≈ 2.97 µM) | 3.69 (≈ 6.64 µM) | – | – | Cc1cc(F)ccc1C1CC(O)(C(c2cccc(Cl)c2)c2cc3cc(Br)ccc3[nH]c2=O)CCN1 (stereo not shown) [Compound 137]
15 | – | – | 1.15 (≈ 2.07 µM) | 1.15 (≈ 2.07 µM) | COc1nc2ccc(SC)cc2cc1C(c1cccc(Cl)c1)C1(O)CCNC(Cc2ccc(F)cc2F)C1 (stereo not shown) [Compound 50]
16 | >14.80 | >14.80 | – | – | Cc1cc(F)ccc1C1CC(O)(C(c2ccc(Cl)cc2)c2cc3cc(S(C)(=O)=O)ccc3[nH]c2=O)CCN1 (stereo not shown) [Compound 220]
17 | 1.87 (≈ 3.36 µM) | 1.87 (≈ 3.36 µM) | – | – | Cc1cc(F)ccc1C1CC(O)(C(c2ccc(Cl)cc2)c2cc3cc(Br)ccc3[nH]c2=O)CCN1 (stereo not shown) [Compound 110]
18 | 3.12 (≈ 6.31 µM) | 6.22 (≈ 12.6 µM) | – | – | COc1nc2ccc(Cl)cc2cc1C(c1ccc(Cl)cc1)C1(O)CCNC(c2cccnc2)C1 (stereo not shown) [Compound 28]
19 | 4.98 (≈ 10.8 µM) | >6.27 | – | – | CC1CC(O)(C(c2ccc(Cl)cc2)c2cc3cc(Br)ccc3[nH]c2=O)CCN1 (stereo not shown) [Compound 131]
20 | >15.47 | 15.47 (≈ 36.4 µM) | – | – | COc1nc2ccccc2cc1C(c1ccccc1)C1(O)CCNC(c2ccccc2)C1 (stereo not shown) [Compound 415]

Row | IC90 MSM 607 [1] [µg/mL] | IC90 STA B29213 [2] [µg/mL] | IC90 [1] [µg/mL] | IC90 [2] [µg/mL] | SMILES
21 | 9.34 (≈ 16.8 µM) | 7.42 (≈ 13.4 µM) | – | – | Cc1cc(F)ccc1C1CC(O)(C(c2cccc(Cl)c2)c2cc3cc(S(C)(=O)=O)ccc3[nH]c2=O)CCN1 (stereo not shown) [Compound 271]
22 | 8.66 (≈ 17.6 µM) | 9.72 (≈ 19.7 µM) | – | – | COc1nc2ccc(Cl)cc2cc1C(c1ccc(Cl)cc1)C1(O)CCNC(c2ccccc2)C1 (stereo not shown) [Compound 403]
23 | 1.76 (≈ 3.09 µM) | 2.78 (≈ 4.88 µM) | – | – | COc1nc2ccc(Br)cc2cc1C(c1cccc(Cl)c1)C1(O)CCNC(c2ccc(F)cc2C)C1 (stereo not shown) [Compound 152]
24 | 5.37 (≈ 10 µM) | 6.76 (≈ 12.6 µM) | – | – | CS(=O)(=O)c1ccc2[nH]c(=O)c(C(c3ccc(Cl)cc3)C3(O)CCNC(Cc4ccccc4)C3)cc2c1 (stereo not shown) [Compound 120]
25 | – | 2.20 (≈ 3.96 µM) | 2.77 (≈ 4.99 µM) | – | COc1nc2ccc(SC)cc2cc1C(c1ccc(Cl)cc1)C1(O)CCNC(Cc2ccc(F)c(F)c2)C1 (stereo not shown) [Compound 188]
26 | 1.07 (≈ 1.99 µM) | 1.91 (≈ 3.56 µM) | – | – | COc1nc2ccc(SC)cc2cc1C(c1ccc(Cl)cc1)C1(O)CCNC(c2ccc(F)cc2C)C1 (stereo not shown) [Compound 274]
27 | 3.74 (≈ 6.73 µM) | 7.46 (≈ 13.4 µM) | – | – | O=c1[nH]c2ccc(Br)cc2cc1C(c1ccc(Cl)cc1)C1(O)CCNC(Cc2ccc(F)cc2)C1 (stereo not shown) [Compound 342]
28 | – | 12.17 (≈ 22.4 µM) | – | – | COc1nc2ccc(Cl)cc2cc1C(c1ccc(Cl)cc1)C1(O)CCNC(c2ccc3ccccc3c2)C1 (stereo not shown) [Compound 441]
29 | 5.81 (≈ 12.6 µM) | 11.60 (≈ 25.1 µM) | – | – | CC1CC(O)(C(c2ccc(Cl)cc2)c2cc3cc(Br)ccc3[nH]c2=O)CCN1 (stereo not shown) [Compound 130]
30 | 12.90 (≈ 27 µM) | >12.90 | – | – | O=c1[nH]c2ccc(F)cc2cc1C(c1ccc(Cl)cc1)C1(O)CCNC(Cc2ccccc2)C1 (stereo not shown) [Compound 375]
31 | – | 7.23 (≈ 13.4 µM) | 3.62 (≈ 6.73 µM) | – | O=c1[nH]c2ccc(Br)cc2cc1C(c1cccc(Cl)c1)C1(O)CCNC(Cc2ccccc2)C1 (stereo not shown) [Compound 85]
32 | 1.51 (≈ 2.81 µM) | 3.39 (≈ 6.31 µM) | – | – | COc1nc2ccc(SC)cc2cc1C(c1cccc(Cl)c1)C1(O)CCNC(c2ccc(F)cc2C)C1 (stereo not shown) [Compound 147]
33 | 3.71 (≈ 7.56 µM) | 5.24 (≈ 10.7 µM) | – | – | CSc1ccc2[nH]c(=O)c(C(c3ccc(Cl)cc3)C3(O)CCNC(c4ccccc4)C3)cc2c1 (stereo not shown) [Compound 234]
34 | 1.87 (≈ 3.36 µM) | 2.35 (≈ 4.23 µM) | – | – | Cc1cc(F)ccc1C1CC(O)(C(c2cccc(Cl)c2)c2cc3cc(Br)ccc3[nH]c2=O)CCN1 (stereo not shown) [Compound 146]
35 | – | – | – | 4.37 (≈ 7.94 µM) | COc1nc2ccc(-c3cccnc3)cc2cc1C(c1ccc(Cl)cc1)C1(O)CCNC(Cc2ccccc2)C1 (stereo not shown) [Compound 80]
36 | 9.21 (≈ 19.9 µM) | – | – | – | CC1CC(O)(C(c2ccc(Cl)cc2)c2cc3cc(Br)ccc3[nH]c2=O)CCN1 (stereo not shown) [Compound 132]
37 | – | >44.79 | – | – | COc1nc2ccc(Br)cc2cc1C(c1ccc(Cl)cc1)C1(O)CCN(Cc2ccccc2)CC1C (stereo not shown) [Compound 26]
38 | – | – | – | 4.11 (≈ 7.94 µM) | COc1nc2ccc(Br)cc2cc1C(c1ccccc1)C1(O)CCNC(Cc2ccccc2)C1 (stereo not shown) [Compound 72]
39 | – | 8.61 (≈ 15.8 µM) | – | – | COc1nc2ccc(Cl)cc2cc1C(c1ccc(Cl)cc1)C1(O)CCNC(c2ccc3ccccc3c2)C1 (stereo not shown) [Compound 440]
40 | – | 13.44 (≈ 25.1 µM) | – | – | COc1nc2ccc(F)cc2cc1C(c1ccc(Cl)cc1)C1(O)CCN(C(C)c2ccccc2)C(CO)C1 (stereo not shown) [Compound 437]
